Laboratory results from ChEMBL document CHEMBL6087392, “Discovery of ZG-2305, an Orally Bioavailable Factor Inhibiting HIF Inhibitor for the Treatment of Obesity and Fatty Liver Disease” (J Med Chem, 2025).

How the values were obtained:
[1] = Inhibition of FIH (unknown origin); design: species or system Homo sapiens
[2] = target: Voltage-gated inwardly rectifying potassium channel KCNH2 (Homo sapiens, UniProt Q12809); assay: Inhibition of human ERG at 30 uM; type: toxicity
Cytochrome P450 2C9 = Cytochrome P450 2C9 (Homo sapiens, UniProt P11712); assay: Inhibition of CYP2C9 in human liver microsomes using diclofenac as substrate preincubated for 5 mins followed by NADPH addition and measured after 10 mins by LC-MS/MS analysis; type: ADME, Microsome
Cytochrome P450 2D6 = Cytochrome P450 2D6 (Homo sapiens, UniProt P10635); assay: Inhibition of CYP2D6 in human liver microsomes using bufuralol as substrate preincubated for 5 mins followed by NADPH addition and measured after 10 mins by LC-MS/MS analysis; type: ADME, Microsome
Cytochrome P450 2C19 = Cytochrome P450 2C19 (Homo sapiens, UniProt P33261); assay: Inhibition of CYP2C19 in human liver microsomes using S-mephenytoin as substrate preincubated for 5 mins followed by NADPH addition and measured after 45 mins by LC-MS/MS analysis; type: ADME, Microsome
Cytochrome P450 1A2 = target: T1, Cytochrome P450 1A2 (Homo sapiens, UniProt P05177); assay: Inhibition of CYP1A2 in human liver microsomes using phenacetin as substrate preincubated for 5 mins followed by NADPH addition and measured after 10 mins by LC-MS/MS analysis; type: ADME, Microsome
T1 sequence (P05177 whole entry): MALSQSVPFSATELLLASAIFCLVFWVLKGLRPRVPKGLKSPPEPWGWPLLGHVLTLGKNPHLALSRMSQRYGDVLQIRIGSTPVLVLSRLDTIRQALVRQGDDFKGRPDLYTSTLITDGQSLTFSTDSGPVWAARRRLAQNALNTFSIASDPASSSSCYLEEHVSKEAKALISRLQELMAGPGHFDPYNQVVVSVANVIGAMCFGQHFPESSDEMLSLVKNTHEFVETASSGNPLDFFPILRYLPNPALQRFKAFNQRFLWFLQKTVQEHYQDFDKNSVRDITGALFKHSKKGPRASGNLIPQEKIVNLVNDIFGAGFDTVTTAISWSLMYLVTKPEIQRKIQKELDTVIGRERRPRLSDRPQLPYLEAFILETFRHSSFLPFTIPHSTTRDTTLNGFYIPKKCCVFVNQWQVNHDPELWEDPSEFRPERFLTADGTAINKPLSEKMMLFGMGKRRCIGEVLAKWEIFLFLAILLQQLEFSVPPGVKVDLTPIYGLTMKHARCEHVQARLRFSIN

Cytochrome P450 3A4 = Cytochrome P450 3A4 (Homo sapiens, UniProt P08684); assay: Inhibition of CYP3A4 in human liver microsomes using testosterone as substrate preincubated for 5 mins followed by NADPH addition and measured after 5 mins by LC-MS/MS analysis; type: ADME, Microsome
[3] = Metabolic stability in rat liver microsomes assessed as intrinsic clearance in presence of NADPH by LC-MS/MS analysis

Chain of Cytochrome P450 2C19 (P33261 whole entry): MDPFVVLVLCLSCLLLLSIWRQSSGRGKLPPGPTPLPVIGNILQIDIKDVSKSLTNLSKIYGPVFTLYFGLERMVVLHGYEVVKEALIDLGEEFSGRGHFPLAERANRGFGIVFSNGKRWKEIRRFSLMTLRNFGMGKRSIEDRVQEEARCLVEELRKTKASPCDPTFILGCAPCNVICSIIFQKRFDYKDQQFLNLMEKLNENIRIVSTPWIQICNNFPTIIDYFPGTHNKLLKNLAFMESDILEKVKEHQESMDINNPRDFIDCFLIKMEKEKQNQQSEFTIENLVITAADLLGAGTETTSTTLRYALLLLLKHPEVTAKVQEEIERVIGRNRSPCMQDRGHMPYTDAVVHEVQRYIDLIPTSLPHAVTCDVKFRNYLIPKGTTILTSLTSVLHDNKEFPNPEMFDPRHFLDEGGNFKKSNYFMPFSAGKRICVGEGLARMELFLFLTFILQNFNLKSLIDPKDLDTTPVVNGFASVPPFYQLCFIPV
Chain of Cytochrome P450 3A4 (P08684 whole entry): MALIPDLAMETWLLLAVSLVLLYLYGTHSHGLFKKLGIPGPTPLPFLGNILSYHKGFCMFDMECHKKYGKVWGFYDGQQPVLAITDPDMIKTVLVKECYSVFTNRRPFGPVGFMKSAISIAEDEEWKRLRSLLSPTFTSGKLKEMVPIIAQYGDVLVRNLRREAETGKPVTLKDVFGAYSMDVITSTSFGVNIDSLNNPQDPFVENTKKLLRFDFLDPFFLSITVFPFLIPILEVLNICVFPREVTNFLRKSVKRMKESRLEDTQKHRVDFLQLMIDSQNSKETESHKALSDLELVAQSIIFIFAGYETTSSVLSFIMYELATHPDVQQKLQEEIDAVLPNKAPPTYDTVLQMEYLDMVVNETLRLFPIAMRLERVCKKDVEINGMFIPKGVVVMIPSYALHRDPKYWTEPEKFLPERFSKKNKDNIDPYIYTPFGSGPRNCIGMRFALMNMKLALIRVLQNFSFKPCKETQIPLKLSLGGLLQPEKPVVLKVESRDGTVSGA
Chain of Cytochrome P450 2D6 (P10635 whole entry): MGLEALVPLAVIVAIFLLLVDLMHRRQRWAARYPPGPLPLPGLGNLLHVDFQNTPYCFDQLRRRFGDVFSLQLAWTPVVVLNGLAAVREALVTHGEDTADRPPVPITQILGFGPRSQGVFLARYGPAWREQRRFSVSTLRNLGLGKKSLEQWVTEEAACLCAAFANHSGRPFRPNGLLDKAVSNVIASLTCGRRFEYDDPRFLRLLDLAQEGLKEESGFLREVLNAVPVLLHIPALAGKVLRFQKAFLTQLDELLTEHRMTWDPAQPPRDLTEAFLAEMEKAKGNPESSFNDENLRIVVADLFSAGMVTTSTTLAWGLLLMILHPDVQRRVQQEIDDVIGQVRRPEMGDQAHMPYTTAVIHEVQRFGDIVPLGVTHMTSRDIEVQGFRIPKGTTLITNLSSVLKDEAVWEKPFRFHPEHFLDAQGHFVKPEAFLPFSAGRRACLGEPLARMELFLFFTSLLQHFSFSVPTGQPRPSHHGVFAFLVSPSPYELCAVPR
Chain of Cytochrome P450 2C9 (P11712 whole entry): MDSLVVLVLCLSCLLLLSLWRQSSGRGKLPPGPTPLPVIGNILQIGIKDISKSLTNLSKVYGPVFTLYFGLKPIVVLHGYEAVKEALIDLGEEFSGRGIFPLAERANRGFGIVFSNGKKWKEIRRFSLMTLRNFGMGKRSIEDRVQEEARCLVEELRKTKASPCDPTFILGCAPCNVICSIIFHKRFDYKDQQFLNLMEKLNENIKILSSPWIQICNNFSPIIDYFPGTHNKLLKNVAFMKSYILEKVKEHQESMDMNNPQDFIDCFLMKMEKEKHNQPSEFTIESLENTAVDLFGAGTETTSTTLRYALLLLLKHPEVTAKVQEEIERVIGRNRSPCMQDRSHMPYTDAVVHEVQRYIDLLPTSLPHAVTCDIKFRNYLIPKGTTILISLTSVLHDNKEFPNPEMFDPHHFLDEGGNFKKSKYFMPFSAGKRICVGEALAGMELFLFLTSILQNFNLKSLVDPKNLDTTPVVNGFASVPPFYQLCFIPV
Chain of Voltage-gated inwardly rectifying potassium channel KCNH2 (Q12809 whole entry): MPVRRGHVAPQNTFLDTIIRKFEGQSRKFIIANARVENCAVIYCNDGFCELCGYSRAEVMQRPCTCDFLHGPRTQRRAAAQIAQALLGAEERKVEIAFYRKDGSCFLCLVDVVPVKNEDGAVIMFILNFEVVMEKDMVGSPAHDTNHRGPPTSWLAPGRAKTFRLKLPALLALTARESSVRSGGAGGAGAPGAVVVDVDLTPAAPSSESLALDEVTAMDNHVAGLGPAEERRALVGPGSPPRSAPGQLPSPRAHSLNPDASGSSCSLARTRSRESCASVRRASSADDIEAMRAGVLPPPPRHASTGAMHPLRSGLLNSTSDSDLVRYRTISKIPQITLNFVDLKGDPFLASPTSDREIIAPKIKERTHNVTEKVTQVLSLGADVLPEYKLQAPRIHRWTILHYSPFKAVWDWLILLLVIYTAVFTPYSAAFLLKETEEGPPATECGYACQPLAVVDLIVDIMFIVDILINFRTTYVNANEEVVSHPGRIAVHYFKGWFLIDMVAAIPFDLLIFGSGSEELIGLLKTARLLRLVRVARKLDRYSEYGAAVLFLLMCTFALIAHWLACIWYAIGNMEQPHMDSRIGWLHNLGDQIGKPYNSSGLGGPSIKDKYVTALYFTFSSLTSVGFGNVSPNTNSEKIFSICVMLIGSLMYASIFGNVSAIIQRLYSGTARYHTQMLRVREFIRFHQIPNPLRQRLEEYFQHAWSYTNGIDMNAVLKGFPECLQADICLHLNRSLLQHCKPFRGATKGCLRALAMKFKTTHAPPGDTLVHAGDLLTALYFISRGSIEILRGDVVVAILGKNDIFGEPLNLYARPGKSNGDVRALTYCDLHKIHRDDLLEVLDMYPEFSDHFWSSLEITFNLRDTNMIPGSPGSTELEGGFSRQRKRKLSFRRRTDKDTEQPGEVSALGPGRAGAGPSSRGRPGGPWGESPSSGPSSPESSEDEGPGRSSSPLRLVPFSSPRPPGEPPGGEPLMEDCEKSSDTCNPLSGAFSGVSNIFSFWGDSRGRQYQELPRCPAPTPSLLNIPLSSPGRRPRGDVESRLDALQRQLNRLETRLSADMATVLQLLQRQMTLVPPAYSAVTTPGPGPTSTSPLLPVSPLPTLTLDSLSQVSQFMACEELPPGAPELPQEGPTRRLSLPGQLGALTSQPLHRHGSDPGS

Structure (SMILES): O=C(O)Cc1cs/c(=N\C(=O)C2CCN(S(=O)(=O)Cc3ccccc3)C2)n1O (stereo not drawn)
- IC50 [1]: 0.28 µM

Structure (SMILES): O=C(O)CNC(=O)c1ncc(-c2cc(-c3cc(Cl)cc(Cl)c3)no2)cc1O
- inhibition (INH) [2]: Not_active
- IC50 (Cytochrome P450 2C9): > 30 µM
- IC50 (Cytochrome P450 2D6): > 30 µM
- IC50 (Cytochrome P450 2C19): > 30 µM
- IC50 (Cytochrome P450 1A2): > 30 µM
- IC50 (Cytochrome P450 3A4): > 30 µM

Structure (SMILES): C[C@]12CC[C@H]3[C@@H](CCC4=CC(=O)CC[C@@]43C)[C@@H]1CC[C@@H]2O [TESTOSTERONE]
- microsomal CLint [3]: 1200 µL/min/mg
